Article PMC10222328 (Pharmaceuticals, 2023)

Tests used:
[1] = Acute oral toxicity evaluation in rats; format: in vivo, Wistar albino rats; conditions: single oral dose 10 mg/kg, after 14 days, (absolute organ weight × 100%)/body weight
Description: Healthy male rats (n = 24, three rats per group, body weight 180–200 g) were used for conducting an acute oral toxicity study. Animals were divided into the following groups: a control group that included rats that received a single dose of 1% DMSO and experimental groups that involved rats that received compounds 1–7 in the single dose of 10 mg/kg.
After oral administration of the aforementioned agents, rats were kept in single cages and monitored during 14 days. Food and water intake, as well as body weight, were measured daily. All the behavioral changes and any signs of toxicity were monitored daily during 2-week protocol (fur and skin, eyes, salivation, respiration, urination (color), faeces consistency, somatomotor activity, and other alterations in behavior pattern). After accomplishing 14 days, animals were sacrificed and organ weight (liver, kidney, stomach, and heart) was recorded. Relative organ weight was calculated as follows:(absolute organ weight × 100%)/body weight of rat on the day of sacrifice.(1)

[2] = system: carrageenan-induced rat paw edema; experiment: Carrageenan-induced rat paw edema model; format: in vivo, Wistar albino rats; conditions: for Rat paw thickness: mean ± SD; for inhibition in vivo at 2.5 mg/kg / inhibition in vivo at 5 mg/kg / inhibition in vivo at 10 mg/kg: Rattus norvegicus, po
Description: In vivo assessment of anti-inflammatory activity of compounds 1–7 was conducted in the carrageenan-induced rat paw edema model. Inflammation in all rats was induced by an intraplantar injection of […] of 0.5% carrageenan saline in the left hind paw. Two hundred male Wistar albino rats (180–210 g) were divided into seven experimental (n = 168 rats, 8 rats per subgroup) and two control groups (n = 32 rats, 8 rats per subgroup).
Experimental groups involved rats that received compounds 1–7, and they were divided into three subgroups: rats received compounds 1–7 per os in three doses (2.5 mg/kg, 5 mg/kg, and 10 mg/kg) dissolved in 1% DMSO for 60 min before inducing inflammation.
In order to quantify the anti-inflammatory effect, the thickness of the left paw tissue of each rat was measured at the following time intervals: immediately before inducing inflammation (moment 0) and 1, 2, 3, and 4 h (moments 1, 2, 3, and 4) after inflammation. Tissue thickness was measured in the middle of the rat paw using a digital vernier caliper (Aerospace, Beijing, China).

5-LOX = target: T1, 5-LOX (Homo sapiens, UniProt P09917); experiment: Fluorometric 5-LOX inhibitor screening kit; format: biochemical; conditions: mean ± standard error of two measurements; for inhibition at 10 µM: read-out: 5-LOX Percent of Inhibition
T1 construct: purchased Abcam, UK
T1 sequence (P09917 1-674): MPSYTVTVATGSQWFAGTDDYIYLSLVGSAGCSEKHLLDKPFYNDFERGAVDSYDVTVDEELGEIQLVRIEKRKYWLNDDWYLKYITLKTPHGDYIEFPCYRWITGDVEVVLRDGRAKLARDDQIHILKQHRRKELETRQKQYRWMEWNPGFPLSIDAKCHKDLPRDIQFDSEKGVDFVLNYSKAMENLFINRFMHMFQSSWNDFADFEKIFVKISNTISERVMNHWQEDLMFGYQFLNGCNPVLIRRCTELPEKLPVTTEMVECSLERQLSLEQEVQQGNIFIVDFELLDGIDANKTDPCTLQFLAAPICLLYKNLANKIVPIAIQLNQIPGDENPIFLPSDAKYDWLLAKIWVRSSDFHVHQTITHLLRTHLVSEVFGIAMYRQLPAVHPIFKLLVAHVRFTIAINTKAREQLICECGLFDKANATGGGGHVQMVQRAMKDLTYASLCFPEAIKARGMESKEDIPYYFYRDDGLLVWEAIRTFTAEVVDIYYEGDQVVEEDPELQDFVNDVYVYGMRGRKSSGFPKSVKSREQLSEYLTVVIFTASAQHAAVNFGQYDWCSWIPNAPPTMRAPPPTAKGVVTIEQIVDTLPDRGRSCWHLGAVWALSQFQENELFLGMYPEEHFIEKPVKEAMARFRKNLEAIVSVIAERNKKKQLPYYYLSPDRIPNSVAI
Description: COX-2 and 5-LOX inhibitory activities were tested using fluorometric COX-2 and 5-LOX inhibitor screening kits (Abcam, UK). These assays are based on the fluorometric detection of Prostaglandin G2 (a product generated by the COX enzyme) or on the fluorometric detection of intermediate generated by the 5-LOX enzyme. The experiments were conducted according to the manufacturers’ instructions.
For the determination of COX-2 inhibitory activity, tested compounds were dissolved in DMSO (5 mM stock solutions) and then diluted with the same solvent to obtain test solutions. Test solutions were further diluted 5X with COX assay buffer (2 µL of test solution and 8 µL COX assay buffer). […] Solvent control (SC) was prepared by adding 2 µL DMSO and 8 µL COX assay buffer, while sample (S) and enzyme control (EC) were prepared by adding 10 µL of diluted test solution and COX assay buffer, respectively, into assigned wells. For the determination of 5-LOX inhibitory activity, tested compounds were also dissolved in DMSO to prepare stock solutions with the same concentration (5mM), which were then diluted with the same solvent to obtain test solutions. Subsequently, test solutions were added to corresponding wells (2 µL).

[3] = 2.5 mg/kg per os, 1 h after carrageenan
[4] = 2.5 mg/kg per os, 2 h after carrageenan
[5] = 2.5 mg/kg per os, 3 h after carrageenan
[6] = 2.5 mg/kg per os, 4 h after carrageenan
[7] = 5.0 mg/kg per os, 1 h after carrageenan
[8] = 5.0 mg/kg per os, 2 h after carrageenan
[9] = 5.0 mg/kg per os, 3 h after carrageenan
[10] = 5.0 mg/kg per os, 4 h after carrageenan
[11] = 10.0 mg/kg per os, 1 h after carrageenan
[12] = 10.0 mg/kg per os, 2 h after carrageenan
[13] = 10.0 mg/kg per os, 3 h after carrageenan
[14] = 10.0 mg/kg per os, 4 h after carrageenan
[15] = 1 h, 2.5 mg/kg per os, 1 h after carrageenan
[16] = 1 h, 5.0 mg/kg per os, 1 h after carrageenan
[17] = 1 h, 10.0 mg/kg per os, 1 h after carrageenan
[18] = 2 h, 2.5 mg/kg per os, 2 h after carrageenan
[19] = 2 h, 5.0 mg/kg per os, 2 h after carrageenan
[20] = 2 h, 10.0 mg/kg per os, 2 h after carrageenan
[21] = 3 h, 2.5 mg/kg per os, 3 h after carrageenan
[22] = 3 h, 5.0 mg/kg per os, 3 h after carrageenan
[23] = 3 h, 10.0 mg/kg per os, 3 h after carrageenan
[24] = 4 h, 2.5 mg/kg per os, 4 h after carrageenan
[25] = 4 h, 5.0 mg/kg per os, 4 h after carrageenan
[26] = 4 h, 10.0 mg/kg per os, 4 h after carrageenan

SMILES | Relative organ weight, heart [1] | Relative organ weight, kidney [1] | Relative organ weight, liver [1] | Relative organ weight, stomach [1] | Rat paw thickness [2, 3] [mm] | Rat paw thickness [2, 4] [mm] | Rat paw thickness [2, 5] [mm] | Rat paw thickness [2, 6] [mm] | Rat paw thickness [2, 7] [mm] | Rat paw thickness [2, 8] [mm] | Rat paw thickness [2, 9] [mm] | Rat paw thickness [2, 10] [mm] | Rat paw thickness [2, 11] [mm] | Rat paw thickness [2, 12] [mm] | Rat paw thickness [2, 14] [mm] | inhibition in vivo at 2.5 mg/kg [2, 15] [%] | inhibition in vivo at 5 mg/kg [2, 16] [%] | inhibition in vivo at 10 mg/kg [2, 17] [%] | inhibition in vivo at 2.5 mg/kg [2, 18] [%] | inhibition in vivo at 5 mg/kg [2, 19] [%] | also measured
COc1ccc(NC(=S)NC(=O)[C@@H](C)c2ccc3cc(OC)ccc3c2)cc1 [Compound 2, (S)-2-(6-methoxynaphthalen-2-yl)-N-((4-methoxyphenyl)carbamothioyl)propanamide] | 0.33 ± 0.04 | 0.34 ± 0.04 | 3.07 ± 0.38 | 0.57 ± 0.04 | 6.57 ± 1.16 | 6.07 ± 0.72 | 5.77 ± 0.42 | 5.30 ± 0.26 | 7.03 ± 0.47 | 6.40 ± 0.53 | 5.70 ± 0.20 | 5.53 ± 0.29 | 6.5 ± 0.40 | 6.17 ± 0.67 | 5.33 ± 0.25 | 9.28 | 6.53 | 23 | 21.8 | 24.9 | Rat paw thickness [2, 13]: 5.53 ± 0.15 mm; inhibition in vivo at 10 mg/kg [2, 20]: 29.5%; inhibition in vivo at 2.5 mg/kg [2, 21]: 23.3%; inhibition in vivo at 5 mg/kg [2, 22]: 48.9%; inhibition in vivo at 10 mg/kg [2, 23]: 50.7%; inhibition in vivo at 2.5 mg/kg [2, 24]: 35.6%; inhibition in vivo at 5 mg/kg [2, 25]: 47.1%; inhibition in vivo at 10 mg/kg [2, 26]: 51.7%; inhibition at 10 µM (5-LOX): 25.1 ± 1.83%; IC50 (5-LOX): 39.8 ± 1.98 µM
CCOC(=O)C(Cc1ccccc1)NC(=S)NC(=O)C(C)c1ccc2cc(OC)ccc2c1 [Compound 6, Ethyl(((S)-2-(6-methoxynaphthalen-2-yl)propanoyl)carbamothioyl)-L-phenylalaninate] | 0.34 ± 0.02 | 0.35 ± 0.05 | 3.01 ± 0.29 | 0.55 ± 0.03 | 6.17 ± 0.31 | 5.87 ± 0.23 | 5.37 ± 0.55 | 4.93 ± 0.21 | 6.47 ± 0.57 | 6.17 ± 0.06 | 5.77 ± 0.06 | 5.27 ± 0.21 | 6.20 ± 0.20 | 6.17 ± 0.23 | 5.03 ± 0.76 | 11.8 | 17.5 | 21.6 | 15.7 | 21.8 | Rat paw thickness [2, 13]: 5.27 ± 0.72 mm; inhibition in vivo at 10 mg/kg [2, 20]: 14.2%; inhibition in vivo at 2.5 mg/kg [2, 21]: 26.9%; inhibition in vivo at 5 mg/kg [2, 22]: 28.8%; inhibition in vivo at 10 mg/kg [2, 23]: 47.1%; inhibition in vivo at 2.5 mg/kg [2, 24]: 37.9%; inhibition in vivo at 5 mg/kg [2, 25]: 44.7%; inhibition in vivo at 10 mg/kg [2, 26]: 49.4%; inhibition at 10 µM (5-LOX): 23.6 ± 2.14%
COc1ccc2cc([C@H](C)C(=O)NC(=S)Nc3ccc(F)cc3)ccc2c1 [Compound 1, (S)-N-((4-fluorophenyl)carbamothioyl)-2-(6-methoxynaphthalen-2-yl)propanamide] | 0.32 ± 0.02 | 0.31 ± 0.03 | 2.73 ± 0.24 | 0.54 ± 0.05 | 6.50 ± 0.40 | 6.50 ± 0.40 | 6.20 ± 0.30 | 5.53 ± 0.29 | 7.00 ± 0.10 | 6.50 ± 0.17 | 5.8 ± 0.20 | 5.27 ± 0.29 | 7.03 ± 0.12 | 6.60 ± 0.10 | 5.27 ± 0.50 | 20.3 | -7.22 | -5.84 | 11.1 | 3.45 | Rat paw thickness [2, 13]: 6.10 ± 0.17 mm; inhibition in vivo at 10 mg/kg [2, 20]: 1.92%; inhibition in vivo at 2.5 mg/kg [2, 21]: 10.5%; inhibition in vivo at 5 mg/kg [2, 22]: 23.3%; inhibition in vivo at 10 mg/kg [2, 23]: 10.5%; inhibition in vivo at 2.5 mg/kg [2, 24]: 33.3%; inhibition in vivo at 5 mg/kg [2, 25]: 40.2%; inhibition in vivo at 10 mg/kg [2, 26]: 44.8%; inhibition at 10 µM (5-LOX): 34.2 ± 1.04%; IC50 (5-LOX): 19.2 ± 0.96 µM
COc1ccc2cc([C@H](C)C(=O)NC(=S)Nc3ccc(C(C)=O)cc3)ccc2c1 [Compound 5, (S)-N-((4-acetylphenyl)carbamothioyl)-2-(6-methoxynaphthalen-2-yl)propanamide] | 0.31 ± 0.03 | 0.30 ± 0.03 | 2.97 ± 0.33 | 0.53 ± 0.04 | 5.73 ± 0.12 | 5.37 ± 0.25 | 5.20 ± 0.20 | 4.57 ± 0.15 | 5.05 ± 0.07 | 4.85 ± 0.07 | 4.40 ± 0.14 | 3.95 ± 0.07 | 5.5 ± 0.71 | 5.35 ± 0.64 | 4.75 ± 0.49 | 10.7 | 19.6 | 38.1 | 17.2 | 19.5 | inhibition in vivo at 10 mg/kg [2, 20]: 37.9%; inhibition in vivo at 2.5 mg/kg [2, 21]: 10.5%; inhibition in vivo at 5 mg/kg [2, 22]: 28.8%; inhibition in vivo at 10 mg/kg [2, 23]: 39.7%; inhibition in vivo at 2.5 mg/kg [2, 24]: 31%; inhibition in vivo at 5 mg/kg [2, 25]: 41.4%; inhibition in vivo at 10 mg/kg [2, 26]: 47 to 54%; inhibition at 10 µM (5-LOX): 46.2 ± 4.87%; IC50 (5-LOX): 16.7 ± 1.79 µM
